Nine compounds from patent US8415351B2 (priority 2007, dated 2013) can be followed below.

Experiment [1] has as its system genotype 1b-Con1 subgenomic replicon cell line. Description: microbe, parasite or virus in culture. The format is cell-based, HCV. As to conditions: Hepatitis C virus, read-out: EC50 1b.
Experiment [2] deals with genotype 1a-H77 subgenomic replicon cell line. The experiment in a line: microbe, parasite or virus in culture. The format is cell-based, HCV. The conditions noted are these: Hepatitis C virus, read-out: EC50 1a.
The target of experiment [3] is T1, HCV polymerase 1A (Δ21 NS5B, H77) (Hepatitis C virus genotype 1a, UniProt P27958).
T1 construct: 20 to 50 nM Δ21 NS5B
The experiment in a line: biochemical. The conditions noted are these: IC50 1a. Summed up:
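Radiometric assay with Δ21 NS5B (H77): 20 μM CTP, 20 μM ATP, 1 μM ^3H-UTP, 5 nM template RNA, 2–4 h at room temperature. RNA precipitated with spermine, filter-captured and counted. IC50 from non-linear fit of retained cpm vs inhibitor concentration (tight-binding equation).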

Experiment [4] deals with T2, HCV polymerase 1B (Δ21 NS5B, BK) (Hepatitis C virus genotype 1b, UniProt P26663).
T2 construct: 20 to 50 nM Δ21 NS5B
The experiment in a line: biochemical. Summed up: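 Δ21 NS5B (genotype 1b, BK […]) preincubated 15 min RT with inhibitor, 2 mM MnCl2, pH 7.4, 60–125 μM GTP; started with 20 μM CTP/ATP, 1 μM 3H-UTP, 5 nM template RNA, run 2–4 h RT. Spermine-precipitated RNA filter-captured, scintillation counted; IC50 from tight-binding (Morrison) fit.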

T1 sequence (P27958 2421-2990, stated change not applied): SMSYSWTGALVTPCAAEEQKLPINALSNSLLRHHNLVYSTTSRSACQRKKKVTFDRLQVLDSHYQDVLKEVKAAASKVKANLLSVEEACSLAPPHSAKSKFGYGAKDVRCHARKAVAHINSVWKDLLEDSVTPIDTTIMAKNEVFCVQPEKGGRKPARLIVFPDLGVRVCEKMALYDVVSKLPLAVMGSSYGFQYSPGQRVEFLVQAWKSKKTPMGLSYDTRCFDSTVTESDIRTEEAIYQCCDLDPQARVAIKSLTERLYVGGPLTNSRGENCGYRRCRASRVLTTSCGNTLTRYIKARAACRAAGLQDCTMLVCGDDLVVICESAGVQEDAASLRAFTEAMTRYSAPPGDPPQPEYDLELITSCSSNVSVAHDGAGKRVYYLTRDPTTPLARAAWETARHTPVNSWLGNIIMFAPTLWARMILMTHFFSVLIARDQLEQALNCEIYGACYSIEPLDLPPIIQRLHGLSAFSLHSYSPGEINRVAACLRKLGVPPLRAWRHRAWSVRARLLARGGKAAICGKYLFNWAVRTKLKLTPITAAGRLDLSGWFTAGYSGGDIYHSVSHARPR
T2 sequence (P26663 2420-2989, stated change not applied): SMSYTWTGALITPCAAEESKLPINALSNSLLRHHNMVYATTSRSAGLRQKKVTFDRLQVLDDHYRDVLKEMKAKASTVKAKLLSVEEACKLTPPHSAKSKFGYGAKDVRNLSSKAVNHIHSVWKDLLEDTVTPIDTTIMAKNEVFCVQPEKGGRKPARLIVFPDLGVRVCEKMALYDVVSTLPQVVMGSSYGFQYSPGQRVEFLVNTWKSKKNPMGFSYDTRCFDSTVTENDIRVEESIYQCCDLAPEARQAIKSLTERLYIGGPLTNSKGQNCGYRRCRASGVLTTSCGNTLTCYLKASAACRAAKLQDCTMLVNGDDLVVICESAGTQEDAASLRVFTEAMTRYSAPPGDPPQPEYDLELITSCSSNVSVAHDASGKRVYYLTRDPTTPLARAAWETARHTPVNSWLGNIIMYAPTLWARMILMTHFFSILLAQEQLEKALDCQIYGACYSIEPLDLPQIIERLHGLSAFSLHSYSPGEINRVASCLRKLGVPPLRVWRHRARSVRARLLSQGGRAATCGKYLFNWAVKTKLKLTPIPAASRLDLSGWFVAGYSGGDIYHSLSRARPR

Consider `COc1c(-c2ccc3c(c2)CCC3=O)cc(-n2ccc(=O)[nH]c2=O)cc1C(C)(C)C` [IB-L0-2.50, 1-(3-tert-butyl-4-methoxy-5-(1-oxo-2,3-dihydro-1H-inden-5-yl)phenyl)pyrimidine-2,4(1H,3H)-dione], for which the EC50 in experiment [1] and in experiment [2] was 100 to 1000 nM throughout. Further, the IC50 in experiment [3] and in experiment [4] was 10 to 100 nM throughout.
With `COc1c(-c2ccc3c(c2)CCC3C(=O)NS(C)(=O)=O)cc(-n2ccc(=O)[nH]c2=O)cc1C(C)(C)C` (stereo not drawn) [IB-L0-2.34, 5-(3-tert-butyl-5-(2,4-dioxo-3,4-dihydropyrimidin-1(2H)-yl)-2-methoxyphenyl)-N-(methylsulfonyl)-2,3-dihydro-1H-indene-1-carboxamide], the EC50 is 100 to 1000 nM in experiment [1] and greater than 1000 nM in experiment [2]. For the same compound, the IC50 in experiment [3] and in experiment [4] was 10 to 100 nM throughout.
For `CC(C)(C)c1cc(N2CCC(=O)NC2=O)cc(NC(=O)c2ccc(NS(C)(=O)=O)cc2)c1O` [IA-L4-1.3, N-(3-tert-butyl-5-(2,4-dioxotetrahydropyrimidin-1(2H)-yl)-2-hydroxyphenyl)-4-(methylsulfon amido)benzamide], the EC50 in experiment [1] and in experiment [2] was greater than 1000 nM in each case. The IC50 in experiment [3] and in experiment [4] was 100 to 1000 nM each time.
Take `COc1c(-c2ncc(-c3cccc(NS(C)(=O)=O)c3)o2)cc(N2CCC(=O)NC2=O)cc1C(C)(C)C` [IA-L0-1.9, N-(3-(2-(3-tert-butyl-5-(2,4-dioxotetrahydropyrimidin-1(2H)-yl)-2-methoxyphenyl)oxazol-5-yl)phenyl)methanesulfonamide]: the EC50 was 100 to 1000 nM in experiment [1] and greater than 1000 nM in experiment [2]. The IC50 lay within 10 to 100 nM in experiment [3] and 100 to 1000 nM in experiment [4].
For the compound `CC(C)(C)c1cc(N2CCC(=O)NC2=O)cc(C(=O)Nc2ccc(NS(=O)(=O)CC(F)(F)F)cc2)c1O` [IA-L3-1.9, 3-tert-butyl-5-(2,4-dioxotetrahydropyrimidin-1(2H)-yl)-2-hydroxy-N-(4-(2,2,2-trifluoroethylsulfonamido)phenyl)benzamide], the concentration for a half-maximal effect (EC50) in experiment [1] and in experiment [2] was greater than 1000 nM throughout. The IC50 fell in the range of 100 to 1000 nM in experiment [3] and 10 to 100 nM in experiment [4].
With `COc1cc(NS(C)(=O)=O)ccc1NC(=O)c1cc(N2CCC(=O)NC2=O)cc(C(C)(C)C)c1OC` [IA-L3-1.85, 3-tert-butyl-5-(2,4-dioxotetrahydropyrimidin-1(2H)-yl)-2-methoxy-N-(2-methoxy-4-(methylsulfonamido)phenyl)benzamide], the EC50 in experiment [1] and in experiment [2] was 100 to 1000 nM each time. Further, the IC50 in experiment [3] and in experiment [4] was 100 to 1000 nM each time.
Turning to `CC(C)(C)c1cc(N2CCC(=O)NC2=O)cc(C(=O)Nc2ccc3ncccc3c2)c1O` [IA-L3-2.1, 3-tert-butyl-5-(2,4-dioxotetrahydropyrimidin-1(2H)-yl)-2-hydroxy-N-(quinolin-6-yl)benzamide], the EC50 in experiment [1] and in experiment [2] was greater than 1000 nM in each case. Further, the IC50 is greater than 1000 nM in experiment [3] and 100 to 1000 nM in experiment [4].
As to `COC(=O)NN=C1CCc2cc(-c3cc(-n4ccc(=O)[nH]c4=O)cc(C(C)(C)C)c3OC)ccc21` [IB-L0-2.24, methyl 2-(5-(3-tert-butyl-5-(2,4-dioxo-3,4-dihydropyrimidin-1(2H)-yl)-2-methoxyphenyl)-2,3-dihydro-1H-inden-1-ylidene)hydrazinecarboxylate], the EC50 in experiment [1] and in experiment [2] was 10 to 100 nM in each case. For the same compound, the IC50 in experiment [3] and in experiment [4] was 10 to 100 nM throughout.
Regarding `COc1c(C#Cc2ccc(NS(C)(=O)=O)c(C(F)(F)F)c2)cc(N2CCC(=O)NC2=O)cc1C(C)(C)C` [IA-L2-1.19, N-(4-((3-tert-butyl-5-(2,4-dioxotetrahydropyrimidin-1(2H)-yl)-2-methoxyphenyl)ethynyl)-2-(trifluoromethyl)phenyl)methanesulfonamide], the EC50 in experiment [1] and in experiment [2] was greater than 1000 nM each time. Further, the results for the IC50 in experiment [3] and in experiment [4] were 100 to 1000 nM and 10 to 100 nM, respectively.

One may read the EC50 as the midpoint of the concentration-response curve. Usually IC50 stands for the midpoint of a concentration-inhibition curve. A lower IC50 goes with greater potency.
